The record followed here is ChEMBL document CHEMBL3822373, “An evolved oxazolidinone with selective potency against Mycobacterium tuberculosis and gram positive bacteria” (2016).

Each structure is given as a SMILES string. ≈ marks a conversion by molar mass, not a printed value. Calls of active or inactive are those of the source. The rule behind the calls is not given here.

Assay [1] relates to Acinetobacter baumannii. Put plainly: Antibacterial activity against Acinetobacter baumannii ATCC 19606 measured after 18 hrs by broth microdilution assay. The class given is functional. The settings on record: ATCC 19606, 18 h.
In assay [2] the test system is Mycobacterium tuberculosis. Put plainly: Antibacterial activity against Mycobacterium tuberculosis 115R measured after 14 days by broth microdilution assay. The class given is functional. The settings on record: 336 h. In general terms: In broth dilution the organism is exposed to a series of concentrations in liquid medium.
Assay [3] has as its system Acinetobacter baumannii. The experiment in a line: Antibacterial activity against Acinetobacter baumannii 6M-1b measured after 18 hrs by broth microdilution assay. It counts as functional.
In assay [4] the test system is Mycobacterium tuberculosis. The experiment in a line: Potentiation of isoniazid-induced antibacterial activity against Mycobacterium tuberculosis H37Rv by checkboard titration assay. It counts as functional, organism-based.
Assay [5] deals with Staphylococcus aureus. Put plainly: Potentiation of biapenem-induced antibacterial activity against Staphylococcus aureus ATCC 29213 at <0.5 times MIC90 by checkboard titration assay. The class given is functional, organism-based.
Assay [6] deals with Staphylococcus aureus. The experiment in a line: Potentiation of faropenem-induced antibacterial activity against Staphylococcus aureus ATCC 29213 at <0.5 times MIC90 by checkboard titration assay. The class given is functional, organism-based.
Assay [7] relates to Mycobacterium tuberculosis. Put plainly: Antibacterial activity against […] Mycobacterium tuberculosis H37Rv measured after 14 days by broth microdilution assay. The class given is functional. The settings on record: 336 h.
Assay [8] has as its system Staphylococcus aureus. The experiment in a line: Antibacterial activity against […] Staphylococcus aureus ATCC 29213 measured after 18 hrs by broth microdilution assay. The conditions noted are these: ATCC 29213, 18 h. It counts as functional.
The subject of assay [9] is Mycobacterium tuberculosis. The experiment in a line: Potentiation of rifampicin-induced antibacterial activity against Mycobacterium tuberculosis H37Rv by checkboard titration assay. The class given is functional, organism-based.
Another assay deals with Mycobacterium avium. Put plainly: Antibacterial activity against Mycobacterium avium 104 measured after 7 days by broth microdilution assay. The settings on record: Mycobacterium avium, 104, 168 h. It counts as functional.
The subject of assay [10] is Mycobacteroides abscessus. The experiment in a line: Antibacterial activity against Mycobacterium abscessus ATCC 19977 measured after 3 days by broth microdilution assay. It counts as functional. The conditions noted are these: ATCC 19977, 72 h.
Assay [11] relates to Enterococcus faecalis. Put plainly: Antibacterial activity against Enterococcus faecalis ATCC 19433 measured after 18 hrs by broth microdilution assay. It counts as functional. The settings on record: ATCC 19433, 18 h.
In a further assay the test system is Pseudomonas aeruginosa. The experiment in a line: Antibacterial activity against Pseudomonas aeruginosa PA14 measured after 18 hrs by broth microdilution assay. The conditions noted are these: PA14, 18 h. It counts as functional.
In assay [12] the test system is Enterococcus faecalis. The experiment in a line: Bacteriostatic activity against Enterococcus faecalis ATCC 19433 assessed as prevention of spontaneous resistant mutant selection up to 60 times MIC90 measured after 5 weeks. It counts as functional.
A further assay relates to Enterobacter cloacae. Put plainly: Antibacterial activity against Enterobacter cloacae ATCC 13047 measured after 18 hrs by broth microdilution assay. The class given is functional. The conditions noted are these: ATCC 13047, 18 h.
Assay [13] has as its system Enterococcus faecalis. Put plainly: Potentiation of faropenem-induced antibacterial activity against Enterococcus faecalis ATCC 19433 at <0.5 times MIC90 by checkboard titration assay. The class given is functional.
The subject of assay [14] is Enterococcus faecalis. The experiment in a line: Bactericidal activity against Enterococcus faecalis ATCC 19433 up to 8 times MIC90 measured after 2 days by broth microdilution assay. The class given is functional.
For assay [15], the system named is Staphylococcus aureus. The experiment in a line: Potentiation of tabipenem-induced antibacterial activity against Staphylococcus aureus ATCC 29213 at <0.5 times MIC90 by checkboard titration assay. It counts as functional, organism-based.
For assay [16], the system named is Staphylococcus aureus. The experiment in a line: Bactericidal activity against Staphylococcus aureus ATCC 29213 up to 8 times MIC90 measured after 2 days by broth microdilution assay. The class given is functional, organism-based.
The test system of assay [17] is Enterococcus faecalis. Put plainly: Potentiation of biapenem-induced antibacterial activity against Enterococcus faecalis ATCC 19433 at <0.5 times MIC90 by checkboard titration assay. It counts as functional.
Assay [18] concerns Mycobacterium tuberculosis. Put plainly: Antibacterial activity against Mycobacterium tuberculosis 124R measured after 14 days by broth microdilution assay. It counts as functional. The conditions noted are these: 336 h.
Assay [19] deals with Acinetobacter baumannii. The experiment in a line: Antibacterial activity against Acinetobacter baumannii ACBA measured after 18 hrs by broth microdilution assay. It counts as functional.
A further assay deals with Klebsiella pneumoniae. The experiment in a line: Antibacterial activity against Klebsiella pneumoniae ATCC 35657 measured after 18 hrs by broth microdilution assay. The class given is functional. The settings on record: ATCC 35657, 18 h.
Assay [20] has as its system Enterococcus faecalis. Put plainly: Potentiation of tabipenem-induced antibacterial activity against Enterococcus faecalis ATCC 19433 at <0.5 times MIC90 by checkboard titration assay. It counts as functional.
Assay [21] concerns Mycobacterium tuberculosis. Put plainly: Bactericidal activity against Mycobacterium tuberculosis H37Rv measured after 21 days by broth microdilution assay. The class given is functional. The conditions noted are these: 504 h, read-out: MBC99.9.
For assay [22], the system named is Staphylococcus aureus. Put plainly: Bacteriostatic activity against […] Staphylococcus aureus ATCC 29213 assessed as prevention of spontaneous resistant mutant selection up to 60 times MIC90 measured after 5 weeks. The class given is functional, organism-based.
Assay [23] deals with Mycobacterium tuberculosis. Put plainly: Antibacterial activity against Mycobacterium tuberculosis. It counts as functional.

In general, MIC90 refers to an inhibitory concentration at the 90% level, which refers to growth in some studies and to a panel of isolates in others. A high value points to lower susceptibility.

On to `CC(=O)NC[C@H]1CN(c2ccc3c(c2)Oc2ccccc2O3)C(=O)O1`, for which the MIC90 with Acinetobacter baumannii [1] is 32 µg/mL (≈ 94 µM); in assay [2] it was 0.5 µg/mL (≈ 1.47 µM); with Acinetobacter baumannii [3] it was 0.25 µg/mL (≈ 0.735 µM); in assay [7] it was 0.5 µg/mL (≈ 1.47 µM); in the assay on Staphylococcus aureus [8], 0.5 µg/mL (≈ 1.47 µM); in the assay with Mycobacterium avium it was > 64 µg/mL. The MIC90 in [10] was > 64 µg/mL; against Enterococcus faecalis [11] it was 0.25 µg/mL (≈ 0.735 µM); with Pseudomonas aeruginosa, > 64 µg/mL; with Enterobacter cloacae it was > 64 µg/mL; in assay [18], 0.5 µg/mL (≈ 1.47 µM); with Acinetobacter baumannii [19], > 64 µg/mL. Besides, in the assay on Klebsiella pneumoniae, the MIC90 was > 64 µg/mL. Also, the outcome (in [4]; with Staphylococcus aureus [5]; with Staphylococcus aureus [6]; in assay [9]; in the assay with Enterococcus faecalis [13]; with Enterococcus faecalis [14]) was inactive. For the same molecule, the outcome in the assay on Staphylococcus aureus [15], in the assay on Staphylococcus aureus [16], in the assay with Enterococcus faecalis [17] and with Enterococcus faecalis [20] was inactive. Moreover, the outcome in the assay with Enterococcus faecalis [12] and in the assay on Staphylococcus aureus [22] was Active. Besides, the MBC in [21] was determined as 2 µg/mL (≈ 5.88 µM).

With `C[C@@H](O)[C@H]1C(=O)N2C(C(=O)[O-])=C(SC3Cn4cnc[n+]4C3)[C@H](C)[C@H]12` (stereo partly specified) [BIAPENEM], the values for the MIC90 (in the assay with Staphylococcus aureus [8]; in assay [23]; with Enterococcus faecalis [11]) were 0.007 µg/mL (≈ 0.02 µM), 2.5 µg/mL (≈ 7.13 µM) and 0.25 µg/mL (≈ 0.713 µM), respectively.

As to `C[C@@H](O)[C@H]1C(=O)N2C(C(=O)O)=C(SC3CN(C4=NCCS4)C3)[C@H](C)[C@H]12` [TEBIPENEM], the figures for the MIC90 (against Staphylococcus aureus [8]; in [23]; in the assay with Enterococcus faecalis [11]) were 0.03 µg/mL (≈ 0.0782 µM), 1.25 µg/mL (≈ 3.26 µM) and 0.25 µg/mL (≈ 0.652 µM), respectively.

Turning to `CO[C@H]1/C=C/O[C@@]2(C)Oc3c(C)c(O)c4c(O)c(c(/C=N/N5CCN(C)CC5)c(O)c4c3C2=O)NC(=O)/C(C)=C\C=C\[C@H](C)[C@H](O)[C@@H](C)[C@@H](O)[C@@H](C)[C@H](OC(C)=O)[C@@H]1C` [RIFAMPIN], the MIC90 in assay [2] amounted to 4 µg/mL (≈ 4.86 µM); in assay [18], 128 µg/mL (≈ 156 µM).

Regarding `CC(=O)NC[C@H]1CN(c2ccc(N3CCOCC3)c(F)c2)C(=O)O1` [LINEZOLID], the MIC90 against Acinetobacter baumannii [1] was > 64 µg/mL; in assay [2], 0.25 µg/mL (≈ 0.741 µM); with Acinetobacter baumannii [3] it was 0.25 µg/mL (≈ 0.741 µM); in assay [7] it was 0.2 µg/mL (≈ 0.593 µM); with Staphylococcus aureus [8], 1 µg/mL (≈ 2.96 µM); in the assay with Enterococcus faecalis [11], 1 µg/mL (≈ 2.96 µM). Further, the MIC90 was > 64 µg/mL in the assay on Pseudomonas aeruginosa; > 64 µg/mL in the assay with Enterobacter cloacae; 0.25 µg/mL (≈ 0.741 µM) in assay [18]; > 64 µg/mL in the assay with Acinetobacter baumannii [19]; 16 µg/mL (≈ 47.4 µM) against Klebsiella pneumoniae.

As for `C[C@@H](O)[C@H]1C(=O)N2C(C(=O)O)=C([C@H]3CCCO3)S[C@H]12` [FAROPENEM], the figures for the MIC90 (against Staphylococcus aureus [8]; in [23]; in the assay on Enterococcus faecalis [11]) were 0.015 µg/mL (≈ 0.0526 µM), 2.5 µg/mL (≈ 8.76 µM) and 0.25 µg/mL (≈ 0.876 µM), respectively.

As to `C[C@@H](O)[C@H]1C(=O)N2C(C(=O)O)=C(S[C@@H]3CN[C@H](C(=O)N(C)C)C3)[C@H](C)[C@H]12` [MEROPENEM], the MIC90 in the assay on Acinetobacter baumannii [1] was > 64 µg/mL; in [2], 8 µg/mL (≈ 20.9 µM); with Acinetobacter baumannii [3], 1 µg/mL (≈ 2.61 µM); in assay [7], 4 µg/mL (≈ 10.4 µM); in the assay with Staphylococcus aureus [8] it was 0.06 µg/mL (≈ 0.156 µM); against Mycobacterium avium, > 64 µg/mL. Further, the MIC90 is > 64 µg/mL in [10]; 4 µg/mL (≈ 10.4 µM) with Enterococcus faecalis [11]; 0.25 µg/mL (≈ 0.652 µM) against Pseudomonas aeruginosa; 0.13 µg/mL (≈ 0.339 µM) with Enterobacter cloacae; 8 µg/mL (≈ 20.9 µM) in assay [18]; > 64 µg/mL in the assay on Acinetobacter baumannii [19]. In the assay with Klebsiella pneumoniae, the MIC90 was < 0.06 µg/mL.
